Test results taken from patent publication US20220110902A1, “Methods of treating amyloid-beta peptide diseases” (Ecole Polytechnique Federale de Lausanne, priority 2016, published 2022).
Entries after “also recorded” stand apart in the source; their conditions may differ.

Tests used:
GMC101 worms [1] = test: Transcript analysis of the MSR and other stress pathways in GMC101 worms; assay type: in vivo, C. elegans; conditions: for UPR^er and HSR gene transcripts: AZD 0.3 μM; for MSR transcripts (UPR^mt, mitophagy and respiration genes): AZD 300 nM
Method: C. elegans: A total of ˜3000 worms per condition, divided in 3 biological replicates, was recovered in M9 buffer from NGM plates and lysed in the TriPure RNA reagent. Each experiment was repeated twice. Total RNA was transcribed to cDNA using QuantiTect Reverse Transcription Kit (Qiagen). Expression of selected genes was analyzed using the LightCycler480 system (Roche) and LightCycler® 480 SYBR Green I Master reagent (Roche). For C. elegans, 2 housekeeping genes were used to normalize the expression data, namely actin (act-1) and peroxisomal membrane protein 3 (pmp-3).
atfs-1p::atfs-1 expression vector was created by amplifying 1488 bp sequence upstream from the transcription start site of atfs-1 coding region by using worm genomic DNA for the promoter region. The PCR product was digested with PciI and AgeI and ligated into the pPD30.38 expression vector containing gfp coding sequence cloned between inserted AgeI and NotI restriction sites. The atfs-1 coding sequence (CDS) was instead amplified using C. elegans cDNA, and the PCR product was inserted into pPD30.38 downstream of the promoter region, between AgeI and NheI restriction sites. The correctness of the atfs-1p::atfs-1 construct was assessed by sequencing with the indicated pPD30.38 and atfs-1 seq. primers. Two independent GMC101 lines (AUW9 and AUW10), and one CL2122 strain (AUW11) carrying atfs-1p::atfs-1 transgene as extrachromosomal array were analyzed in the study. Injection marker myo-2p::gfp was cloned by amplifying 1179 bp sequence upstream from the transcription start site of myo-2 coding region by using C. elegans genomic DNA. The PCR product was digested with PciI and AgeI and ligated into the pPD30.38 expression vector containing atfs-1::gfp to replace atfs-1 promoter sequence between PciI and AgeI restriction sites. All transgenic strains were created by using microinjection. For the generation of the GMC101 lines AUW12 and AUW13, GMC101 males were generated after exposure of L4 worms to 30° C. for 3 h, and let mate with L4 from clk-1 or nuo-6 mutant strains. The derived progeny was selected for homozygosis of the GMC101 intestinal GFP marker for few generations, and the homozygosis of the clk-1 or nuo-6 mutant alleles verified by amplifying and sequencing a 500 bp region of the worms genomic DNA encompassing the desired mutation. Bacterial feeding RNAi experiments were carried out as described. Clones used were atfs-1 (ZC376.7), ubl-5 (F46F11.4), mrps-5 (E02A10.1), dct-1 (C14F5.1), daf-16 (R13H8.1), sir-2.1 (R11A8.4), xbp-1 (R74.3) and hsf-1 (Y53C10A.12). Clones were purchased from GeneService and verified by sequencing. The novel atfs-1 RNAi construct (atfs-1 #2) used in this study was generated by amplifying 1400 bp of the atfs-1 genomic DNA sequence, starting from the last exon of atfs-1. Gateway cloning (Thermo Scientfic) was used to insert the PCR product into the gateway vector pL4440gtwy (Addgene #11344), and verified by sequencing. atfs-1 knockdown was verified by qPCR for all the atfs-1 RNAi constructs used herein. For phenotypic studies (see below), worms at the L4 larval stage were allowed to reach adulthood and lay eggs on the treatment plates. The deriving F1 worms were shifted from 20° C. to 25° C. at the L4 stage to induce amyloid accumulation and paralysis, and phenotypes assessed over time as indicated. For double RNAi experiments, we used a combination of atfs-1 with mrps-5 RNAi constructs as indicated in the text, with 80% amount of atfs-1 and 20% mrps-5 RNAi. For mRNA analysis, synchronized L1 worms were exposed to the treatment plates, and shifted from 20° C. to 25° C. when reaching the L4 stage. After 24 hours incubation at 25° C., corresponding to day 1 of adulthood, they were harvested in M9 for analysis.
Doxycycline was obtained from Sigma-Aldrich and dissolved in water. For experiments, a final concentration of 15 μg/mL was used. Olaparib (AZD2281) was dissolved in DMSO to experimental concentrations of 300 nM. […]

GMC101 worms [2] = test: Worm phenotypic assays in GMC101: mobility, paralysis and death score; assay type: in vivo, C. elegans; conditions: for fitness/healthspan and lifespan (mobility, paralysis, death): GMC101, mobility from day 1 of adulthood, paralysis and death at day 8, dox 15 μg/mL, AZD 300 nM
Method: Doxycycline was obtained from Sigma-Aldrich and dissolved in water. For experiments, a final concentration of 15 μg/mL was used. Olaparib (AZD2281) was dissolved in DMSO to experimental concentrations of 300 nM. Nicotinamide Riboside triflate (NR) was custom synthesized by Novalix (www.novalix-pharma.com/) and dissolved in water, and used at a final concentration of 1 mM. Compounds were added just before pouring the plates. For phenotyping experiments, parental F0 L4 worms were allowed to reach adulthood and lay eggs on the treatment plates. The deriving F1 worms were therefore exposed to compounds during the full life from eggs until death. For RNA analysis experiments, synchronized L1 worms were exposed to the compounds until harvest. To ensure a permanent exposure to the compound, plates were changed twice a week.
Mobility: C. elegans movement analysis was performed as described, starting from day 1 of adulthood, using the Movement Tracker software. The experiments were repeated at least twice.
Paralysis and death score: 5 L4 worms per condition were allowed to reach adulthood and lay eggs on the treatment plates. 45 to 60 deriving F1 worms per condition were manually scored for paralysis after poking, as already described. Worms that were unable to respond to any, repeated stimulation, were scored as dead. Results are representative of the data obtained in at least three independent experiments.
(§1) During the assays, animals were exposed to Myriocin (dissolved in DMSO) from the egg stage on plates seeded with live HT115 E. coli bacteria. Control plates seeded with the same bacteria were prepared with the corresponding concentrations of DMSO. The day of the experiment (day 1 of adulthood, 3 days after hatching), the GMC101 population was shifted to 25° C. in order to induce the amyloid deposition in the body wall muscle. ˜1000 worms were used for western blotting assays.
C. elegans movement analysis was performed as described (Mouchiroud et al., 2016), using the Movement Tracker software. ˜50 adult worms were used per condition for movement assays.
To score for paralysis and death, 50 worms per condition were manually scored after poking as described (McCool et al., 2012; Florez-McClure et al., 2007). Worms that were unable to respond to repeated stimulation were scored as dead.
as §1, with “the compound UA” for “Myriocin (dissolved in DMSO)”, “from” for “from the”, “DMSO (0.1%).” for “DMSO.”, “˜50 adult” for “˜1000”, “per conditions.” for “for western blotting assays.”
C. elegans movement analysis was performed as described in (Mouchiroud et al., 2016), using the Movement Tracker software within a period of 4 days.

[3] = GMC101, day 1 of adulthood, dox 15 μg/mL, NR 1 mM

SMILES | oxidative stress and mitochondrial stress response genes (sod-2, sod-4, atfs-1, skn-1) (GMC101 worms [1]; GMC101, myriocin 5 uM and 10 uM) | UPR^mt and mitophagy genes (hsp-6, hsp-60, dct-1, pdr-1) (GMC101 worms [1]; GMC101, myriocin treatment) | paralysis and death (survival) (GMC101 worms [2]; GMC101, day 4 of adulthood, Myriocin 10 uM) | spontaneous movement (mobility) (GMC101 worms [2]; GMC101, period of 4 days, Myriocin 10 uM) | daf-16 and daf-16 target gene transcripts (GMC101 worms [1]; [3]) | UPR^er and HSR gene transcripts (GMC101 worms [1]; [3]) | MSR transcripts (UPR^mt, mitophagy and respiration genes) (GMC101 worms [1]; [3]) | fitness/healthspan and lifespan (mobility, paralysis, death) (GMC101 worms [2]; NR 1 mM) | health- and life-span upon sir-2.1 RNAi (GMC101 worms [2]; GMC101 fed with sir-2.1 RNAi, NR 1 mM) | dependence of motility and Aβ clearance benefits on atfs-1 (GMC101 worms [2]; GMC101 upon atfs-1 RNAi feeding) | dependence of health-, lifespan and proteostasis benefits on dct-1 (GMC101 worms [2]; GMC101 upon dct-1 RNAi feeding)
CCCCCCC(=O)CCCCCC/C=C/C[C@@H](O)[C@H](O)[C@@](N)(CO)C(=O)O [Myriocin, (E,2S,3R,4R)-2-amino-3,4-dihydroxy-2-(hydroxymethyl)-14-oxoicos-6-enoic acid] | induction | upregulation | decreased both paralysis and death; also recorded: improves the paralysis score and survival | increased the mobility; also recorded: increase in spontaneous movement |  |  |  |  |  |  | 
NC(=O)c1ccc[n+]([C@@H]2O[C@H](CO)[C@@H](O)[C@H]2O)c1 [NR, Nicotinamide Riboside triflate] |  |  |  |  | did not affect | only a minimal impact | induced the MSR | improved healthspan and lifespan | still significantly rescued health- and life-span | required | required
O=C(c1cc(Cc2n[nH]c(=O)c3ccccc23)ccc1F)N1CCN(C(=O)C2CC2)CC1 [AZD, Olaparib, reference compound] |  |  |  |  |  | only a minimal impact | induced the MSR | improved healthspan and lifespan |  |  | 
